Data from patent US11939319B2, “Pyridinyl and pyrazinyl-(asa)indolsulfonamides” (UCB Pharma GmbH, priority 2018, dated 2024).

Target: GPR17 (Homo sapiens, UniProt Q13304)
Experiment: cAMP accumulation functional assay (HTRF) in CHO hGPR17 cells
Assay type: cell-based
Parameters: host or cells: Flp-In T-REx CHO cells, expression induced with doxycycline
Conditions: Schild analysis against MDL29,951, 5 μM forskolin, activity range, read-out: cAMP assay pA2 (converted)
Procedure: Flp-In T-REx CHO cells stably expressing human GPR17 receptor (CHO hGPR17) from Evi Kostenis' lab (Bonn University, Germany) were cultured at 37° C. in a humidified atmosphere of 5% CO2. Cells were grown in DMEM with Nutrient Mixture F-12 supplemented with hygromycin B (500 μg/ml) and blasticidin (30 μg/ml). Expression from the Flp-In locus was induced by treatment with doxycycline (1 μg/ml) for 16-20 h prior assays.
GPR17 activation can also recruit Gi-type G-protein signaling, resulting in a decrease of intracellular cyclic adenosine monophosphate (cAMP). Intracellular cAMP changes can be measured using the HTRF cAMP dynamic assay kit from CisBio (Codolet, France). Using homogenous time-resolved fluorescence technology (HTRF), the assay is based on competition between native cAMP produced by cells and cAMP labelled with the dye d2. The tracer binding was determined by an anti-cAMP antibody labeled with cryptate.
CHO hGPR17 were detached with PBS containing EDTA and dispatched in black 384-well plates with 5,000 cells per well. Cells were first incubated for 30 minutes at room temperature in HBSS Hepes (pH 7.4) containing vehicle or varying concentrations of test GPR17 antagonist/inverse agonist compounds. Then, a dose response curve of MDL29,951 GPR17 agonist (typically from 10^−5M to 10^−10M) was added on vehicle and on each test GPR17 antagonist/inverse agonist compound concentration in a final volume of 20 μL HBSS Hepes buffer (pH 7.4) containing 1% DMSO, 5 μM forskolin and 0.1 mM IBMX. After 60 minutes incubation at room temperature, the reaction is terminated and the cells lysed by adding the d2 detection reagent and the cryptate reagent in 10 μL lysis buffer each according to manufacturer's instructions. After 60 minutes incubation, changes in cAMP concentrations are measured according to manufacturer's instructions using an Envision plate reader with laser excitation. All incubations were performed in duplicate. Data was analyzed using GraphPad Prism software using the 4-parameter logistic equation to measure MDL29,951 pEC50s in absence and presence of GPR17 antagonist/inverse agonist test compounds. Dose ratio (DR) were plotted against antagonist concentrations and Schild analysis provided estimated affinity pA2 of GPR17 antagonist/inverse agonist test compounds.
The activities of the Example compounds tested are depicted in the table below. The activity ranges A, B and C refer to pA2 values in the cAMP assay as follows: “A”: pA2 6.5≤x<7.5, “B”: pA2 7.5≤x<8.5, “C”: 8.5≤pA2.

Sequence of GPR17 (Q13304 29-367 limits assumed): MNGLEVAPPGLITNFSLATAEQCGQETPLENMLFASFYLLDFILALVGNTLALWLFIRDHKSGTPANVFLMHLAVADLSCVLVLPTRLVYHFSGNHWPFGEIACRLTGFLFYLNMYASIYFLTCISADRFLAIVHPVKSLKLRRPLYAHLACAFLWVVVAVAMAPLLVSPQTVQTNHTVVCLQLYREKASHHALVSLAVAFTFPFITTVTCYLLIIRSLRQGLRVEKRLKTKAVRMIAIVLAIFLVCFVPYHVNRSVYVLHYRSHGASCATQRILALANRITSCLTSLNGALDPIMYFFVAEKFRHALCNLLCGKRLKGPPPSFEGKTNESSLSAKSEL

Row | Compound | Kb [nM]
1 | COc1nc(OC(F)F)c(F)cc1NS(=O)(=O)c1c[nH]c2cc(Cl)ccc12 [Example I-9, 6-chloro-N-[6-(difluoromethoxy)-5-fluoro-2-methoxypyridin-3-yl]-1H-indole-3-sulfonamide] | ≤ 3.16
2 | COc1nc(Cl)cnc1NS(=O)(=O)c1c[nH]c2cc(Cl)ccc12 [Example I-11, 6-chloro-N-(5-chloro-3-methoxypyrazin-2-yl)-1H-indole-3-sulfonamide] | ≤ 3.16
3 | COc1nc(OCCF)c(F)cc1NS(=O)(=O)c1c[nH]c2cc(Cl)ccc12 [Example I-12, 6-chloro-N-[5-fluoro-6-(2-fluoroethoxy)-2-methoxypyridin-3-yl]-1H-indole-3-sulfonamide] | ≤ 3.16
4 | COc1nc(OC(F)F)c(F)cc1NS(=O)(=O)c1c[nH]c2cc(C(F)F)ccc12 [Example I-16, N-[6-(difluoromethoxy)-5-fluoro-2-methoxypyridin-3-yl]-6-(difluoromethyl)-1H-indole-3-sulfonamide] | ≤ 3.16
5 | O=S(=O)(Nc1cnc(Cl)cc1Cl)c1c[nH]c2cc(Cl)ccc12 [Example I-26, 6-chloro-N-(4,6-dichloropyridin-3-yl)-1H-indole-3-sulfonamide] | 31.6 to 316
6 | COc1nc(Cl)ccc1NS(=O)(=O)c1c[nH]c2nc(C(F)F)ccc12 [Example I-28, N-(6-chloro-2-methoxypyridin-3-yl)-6-(difluoromethyl)-1H-pyrrolo[2,3-b]pyridine-3-sulfonamide] | 31.6 to 316
7 | O=S(=O)(Nc1cc(F)c(OCC(F)F)nc1F)c1c[nH]c2nc(C(F)F)ccc12 [Example I-30, N-[6-(2,2-difluoroethoxy)-2,5-difluoro-3-pyridyl]-6-(difluoromethyl)-1H-pyrrolo[2,3-b]pyridine-3-sulfonamide] | 31.6 to 316
8 | COc1nc(OCC(F)F)ccc1NS(=O)(=O)c1c[nH]c2cc(Cl)ccc12 [Example I-38, 6-chloro-N-[6-(2,2-difluoroethoxy)-2-methoxypyridin-3-yl]-1H-indole-3-sulfonamide] | ≤ 3.16
9 | COc1ccc(NS(=O)(=O)c2c[nH]c3cc(Cl)ccc23)c(OCC(F)F)n1 [Example I-39, 6-chloro-N-[2-(2,2-difluoroethoxy)-6-methoxypyridin-3-yl]-1H-indole-3-sulfonamide] | 3.16 to 31.6
10 | COc1nc(OCC(F)F)c(F)cc1NS(=O)(=O)c1c[nH]c2cc(Cl)ccc12 [Example I-42, 6-chloro-N-[6-(2,2-difluoroethoxy)-5-fluoro-2-methoxypyridin-3-yl]-1H-indole-3-sulfonamide] | ≤ 3.16
11 | O=S(=O)(Nc1cc(F)c(OCC(F)F)nc1F)c1c[nH]c2nc(Cl)ccc12 [Example I-44, 6-chloro-N-[6-(2,2-difluoroethoxy)-2,5-difluoropyridin-3-yl]-1H-pyrrolo[2,3-b]pyridine-3-sulfonamide] | 31.6 to 316
12 | O=S(=O)(Nc1cc(F)c(C2CC2)nc1F)c1c[nH]c2nc(Cl)ccc12 [Example I-47, 6-chloro-N-(6-cyclopropyl-2,5-difluoropyridin-3-yl)-1H-pyrrolo[2,3-b]pyridine-3-sulfonamide] | 3.16 to 31.6
13 | O=S(=O)(Nc1cc(F)c(OCC(F)F)nc1F)c1c[nH]c2cc(C(F)F)ccc12 [Example I-52, N-[6-(2,2-difluoroethoxy)-2,5-difluoropyridin-3-yl]-6-(difluoromethyl)-1H-indole-3-sulfonamide] | 3.16 to 31.6
14 | COc1nc(OCCF)c(F)cc1NS(=O)(=O)c1c[nH]c2nc(C(F)F)ccc12 [Example I-55, 6-(difluoromethyl)-N-[5-fluoro-6-(2-fluoroethoxy)-2-methoxypyridin-3-yl]-1H-pyrrolo[2,3-b]pyridine-3-sulfonamide] | 3.16 to 31.6

Second part, the compound after the results:

Row | Kb [nM] | Compound
15 | 3.16 to 31.6 | COc1nc(OCCF)ccc1NS(=O)(=O)c1c[nH]c2cc(Cl)ccc12 [Example I-13, 6-chloro-N-[6-(2-fluoroethoxy)-2-methoxypyridin-3-yl]-1H-indole-3-sulfonamide]
16 | ≤ 3.16 | COc1nc(OC(F)F)c(F)cc1NS(=O)(=O)c1c[nH]c2nc(Cl)ccc12 [Example I-22, 6-chloro-N-[6-(difluoromethoxy)-5-fluoro-2-methoxypyridin-3-yl]-1H-pyrrolo[2,3-b]pyridine-3-sulfonamide]
17 | 31.6 to 316 | COc1nc(Cl)ccc1NS(=O)(=O)c1c[nH]c2cc(C(F)F)ccc12 [Example I-27, N-(6-chloro-2-methoxypyridin-3-yl)-6-(difluoromethyl)-1H-indole-3-sulfonamide]
18 | 3.16 to 31.6 | COc1nc(Cl)c(F)cc1NS(=O)(=O)c1c[nH]c2nc(C(F)F)ccc12 [Example I-29, N-(6-chloro-5-fluoro-2-methoxypyridin-3-yl)-6-(difluoromethyl)-1H-pyrrolo[2,3-b]pyridine-3-sulfonamide]
19 | 31.6 to 316 | COc1nc(Cl)ccc1NS(=O)(=O)c1c[nH]c2nc(Cl)ccc12 [Example I-35, 6-chloro-N-(6-chloro-2-methoxypyridin-3-yl)-1H-pyrrolo[2,3-b]pyridine-3-sulfonamide]
20 | ≤ 3.16 | COc1nc(OCCF)c(F)cc1NS(=O)(=O)c1c[nH]c2nc(Cl)ccc12 [Example I-36, 6-chloro-N-[5-fluoro-6-(2-fluoroethoxy)-2-methoxypyridin-3-yl]-1H-pyrrolo[2,3-b]pyridine-3-sulfonamide]
21 | 3.16 to 31.6 | COc1nc(OC(F)F)ccc1NS(=O)(=O)c1c[nH]c2nc(Cl)ccc12 [Example I-37, 6-chloro-N-[6-(difluoromethoxy)-2-methoxy-3-pyridyl]-1H-pyrrolo[2,3-b]pyridine-3-sulfonamide]
22 | 3.16 to 31.6 | COc1cc(OC(F)F)ncc1NS(=O)(=O)c1c[nH]c2cc(Cl)ccc12 [Example I-40, 6-chloro-N-[6-(difluoromethoxy)-4-methoxypyridin-3-yl]-1H-indole-3-sulfonamide]
23 | 3.16 to 31.6 | O=S(=O)(Nc1cc(F)c(C2CC2)nc1F)c1c[nH]c2cc(Cl)ccc12 [Example I-41, 6-chloro-N-(6-cyclopropyl-2,5-difluoropyridin-3-yl)-1H-indole-3-sulfonamide]
24 | ≤ 3.16 | COc1nc(OCCOC(F)F)c(F)cc1NS(=O)(=O)c1c[nH]c2cc(Cl)ccc12 [Example I-43, 6-chloro-N-[6-[2-(difluoromethoxy)ethoxy]-5-fluoro-2-methoxypyridin-3-yl]-1H-indole-3-sulfonamide]
25 | 3.16 to 31.6 | COc1nc(OCC(F)F)ccc1NS(=O)(=O)c1c[nH]c2nc(Cl)ccc12 [Example I-45, 6-chloro-N-[6-(2,2-difluoroethoxy)-2-methoxypyridin-3-yl]-1H-pyrrolo[2,3-b]pyridine-3-sulfonamide]
26 | ≤ 3.16 | COc1nc(OCC(F)F)c(F)cc1NS(=O)(=O)c1c[nH]c2nc(Cl)ccc12 [Example I-46, 6-chloro-N-[6-(2,2-difluoroethoxy)-5-fluoro-2-methoxypyridin-3-yl]-1H-pyrrolo[2,3-b]pyridine-3-sulfonamide]
27 | ≤ 3.16 | COc1nc(OCCOC(F)F)c(F)cc1NS(=O)(=O)c1c[nH]c2nc(Cl)ccc12 [Example I-48, 6-chloro-N-[6-[2-(difluoromethoxy)ethoxy]-5-fluoro-2-methoxypyridin-3-yl]-1H-pyrrolo[2,3-b]pyridine-3-sulfonamide]
28 | 31.6 to 316 | COc1ncc(F)cc1NS(=O)(=O)c1c[nH]c2nc(Cl)ccc12 [Example I-49, 6-chloro-N-(5-fluoro-2-methoxypyridin-3-yl)-1H-pyrrolo[2,3-b]pyridine-3-sulfonamide]
29 | ≤ 3.16 | COc1nc(C2CC2)c(F)cc1NS(=O)(=O)c1c[nH]c2cc(Cl)ccc12 [Example I-50, 6-chloro-N-(6-cyclopropyl-5-fluoro-2-methoxypyridin-3-yl)-1H-indole-3-sulfonamide]
30 | ≤ 3.16 | COc1nc(OCC(F)F)c(F)cc1NS(=O)(=O)c1c[nH]c2cc(OC(F)F)ccc12 [Example I-51, N-[6-(2,2-difluoroethoxy)-5-fluoro-2-methoxypyridin-3-yl]-6-(difluoromethoxy)-1H-indole-3-sulfonamide]
31 | 3.16 to 31.6 | COc1nc(OCC(F)F)ccc1NS(=O)(=O)c1c[nH]c2nc(C(F)F)ccc12 [Example I-53, N-[6-(2,2-difluoroethoxy)-2-methoxypyridin-3-yl]-6-(difluoromethyl)-1H-pyrrolo[2,3-b]pyridine-3-sulfonamide]
32 | ≤ 3.16 | COc1nc(OCC(F)F)c(F)cc1NS(=O)(=O)c1c[nH]c2nc(C(F)F)ccc12 [Example I-54, N-[6-(2,2-difluoroethoxy)-5-fluoro-2-methoxypyridin-3-yl]-6-(difluoromethyl)-1H-pyrrolo[2,3-b]pyridine-3-sulfonamide]
